Patent US8513238B2 (Hoffmann-La Roche Inc., priority 2010, dated 2013)

What follows are compounds tested against T1, human V1a receptor (Homo sapiens, UniProt P37288) (assay: human V1a receptor binding (3H-Vasopressin SPA, HEK293 membranes)). Details: membranes of HEK293 cells transiently transfected with human V1a receptor, Ki by Cheng-Prussoff, read-out: pKi (hV1a) (converted).
T1 construct: expressed in transfected cells; host or cells: HEK293 cells, transiently transfected; membranes prepared
Outline: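 HEK293 membranes transiently expressing cloned human V1a receptor, bound to yttrium silicate SPA beads in Tris/NaCl/KCl/CaCl2/MgCl2 buffer. Test compounds in 2% DMSO competed with 3H-vasopressin (4 nM solution added) for 1 h at room temperature; non-specific binding defined with cold vasopressin. IC50 from non-linear fit, Ki via Cheng-Prusoff.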

T1 sequence (P37288 whole entry): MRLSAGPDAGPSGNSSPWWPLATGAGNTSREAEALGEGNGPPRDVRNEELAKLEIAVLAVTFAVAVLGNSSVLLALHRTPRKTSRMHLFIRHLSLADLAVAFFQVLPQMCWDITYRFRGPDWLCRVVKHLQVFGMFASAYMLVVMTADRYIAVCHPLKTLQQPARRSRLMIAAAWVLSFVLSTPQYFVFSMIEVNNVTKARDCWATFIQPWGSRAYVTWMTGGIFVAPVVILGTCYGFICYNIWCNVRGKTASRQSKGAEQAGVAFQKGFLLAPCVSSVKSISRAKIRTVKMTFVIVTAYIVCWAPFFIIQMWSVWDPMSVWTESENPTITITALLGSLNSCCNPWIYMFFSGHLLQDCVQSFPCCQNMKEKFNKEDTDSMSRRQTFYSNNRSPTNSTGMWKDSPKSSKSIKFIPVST

Structure (SMILES)	Ki [nM]
Cc1cc(C)n([C@H]2CC[C@H](c3nnc4n3-c3ccc(Cl)cc3CN(C(=O)OC(C)(C)C)C4)CC2)n1 [Example 115, trans-8-Chloro-1-[4-(3,5-dimethyl-pyrazol-1-yl)-cyclohexyl]-4H,6H-2,3,5,10b-tetraaza-benzo[e]azulene-5-carboxylic acid tert-butyl ester]	0.17
Cc1cc(C)n([C@H]2CC[C@H](c3nnc4n3-c3ccc(Cl)cc3CNC4)CC2)n1 [Example 116, trans-8-Chloro-1-[4-(3,5-dimethyl-pyrazol-1-yl)-cyclohexyl]-5,6-dihydro-4H-2,3,5,10b-tetraaza-benzo[e]azulene]	72.4
Cc1cc(C)n([C@H]2CC[C@H](c3nnc4n3-c3ccc(Cl)cc3CN(C)C4)CC2)n1 [Example 117, trans-8-Chloro-1-[4-(3,5-dimethyl-pyrazol-1-yl)-cyclohexyl]-5-methyl-5,6-dihydro-4H-2,3,5,10b-tetraaza-benzo[e]azulene]	6.92
Cc1nn([C@H]2CC[C@H](c3nnc4n3-c3ccc(Cl)cc3CN(C(=O)OC(C)(C)C)C4)CC2)c(C)c1C [Example 118, trans-8-Chloro-1-[4-(3,4,5-trimethyl-pyrazol-1-yl)-cyclohexyl]-4H,6H-2,3,5,10b-tetraaza-benzo[e]azulene-5-carboxylic acid tert-butyl ester]	0.832
Cc1nn([C@H]2CC[C@H](c3nnc4n3-c3ccc(Cl)cc3CNC4)CC2)c(C)c1C [Example 119, trans-8-Chloro-1-[4-(3,4,5-trimethyl-pyrazol-1-yl)-cyclohexyl]-5,6-dihydro-4H-2,3,5,10b-tetraaza-benzo[e]azulene]	2.19
Cc1nn([C@H]2CC[C@H](c3nnc4n3-c3ccc(Cl)cc3CN(C)C4)CC2)c(C)c1C [Example 120, trans-8-Chloro-1-[4-(3,4,5-trimethyl-pyrazol-1-yl)-cyclohexyl]-5-methyl-5,6-dihydro-4H-2,3,5,10b-tetraaza-benzo[e]azulene]	1.95
